Source: patent US12678387B2, “Composition for alleviating hair loss or promoting hair growth” (LG HOUSEHOLD & HEALTH CARE LTD., priority 2020, dated 2026)

Experiments:
[1] = system: Human-derived dermal papilla cells (DPCs); assay: Enhancement of activity of dermal papilla cells (CCK-8 method); format: cell-based; conditions: for Activity of dermal papilla cells (%): incubated for a day, percentage of the control group as 100; for Effect on activity and proliferation of dermal papilla cells (in words): summary of Table 3
Procedure: Human-derived dermal papilla cells (DPCs) were purchased from PromoCell. The DPCs were cultured in DMEM (Hyclone Inc., UT, USA) containing 5% fetal bovine serum (FBS; GIBCO, NY, USA), 100 units/mL penicillin and 100 μg/mL streptomycin under the condition of 37° C. and 5% CO2. The cultured DPCs were seeded onto a 96-well plate at 3,000 cells/well and then cultured for 24 hours under a 0.1% serum condition. […] After the incubation, the enhancement of cellular activity was evaluated by the CCK method. The cell culture was treated and incubated with CCK-8 at 1:10 for 1 hour. 1 hour later, the absorbance of each well was measured at 450 nm. All the experiments were 3 times and the absorbance was averaged. The result was expressed as percentage of the control group as 100.

androgen receptor = assay: Androgenic activity: MMTV-Luc transcriptional activation assay in 22Rv1 cells with DHT; format: cell-based, human; conditions: for Inhibition of androgenic activity (%): 10 μg/mL together with 1 nM DHT, 24 hours; for Effect of inhibiting androgenic activity (in words): summary of Table 6
Procedure: The stable cell line was maintained by subculturing using RPMI1640 and 10% fetal bovine serum (GIBCO BRL, Gaithersburg, MD, USA). For transcriptional activation assay, the cells were seeded in a 96-well plate, with 25,000 cells per well, while replacing the medium with phenol red-free RPMI1640 containing 5% charcoal-stripped fetal bovine serum. […] The cell culture was treated and incubated with CCK-8 at 1:10 for 2 hours. 2 hour later, the absorbance of each well was measured at 450 nm. All the experiments were 3 times and the absorbance was averaged.

[2] = system: Human-derived dermal papilla cells (DPCs); assay: Enhancement of mitochondrial activity of dermal papilla cells (JC-1 method); format: cell-based; conditions: for Mitochondrial activity of dermal papilla cells (%): incubated for a day, percentage of the control group as 100; for Effect on mitochondrial activity of dermal papilla cells (in words): summary of Table 4
Procedure: Human-derived dermal papilla cells (DPCs) were purchased from PromoCell. The DPCs were cultured in DMEM (Hyclone Inc., UT, USA) containing 5% fetal bovine serum (FBS; GIBCO, NY, USA), 100 units/mL penicillin and 100 μg/mL streptomycin under the condition of 37° C. and 5% CO2. The cultured DPCs were seeded onto a 96-well plate at 3,000 cells/well and then cultured for 24 hours under a 0.1% serum condition. […] After the incubation, the degree of cell proliferation was evaluated by the JC-1 method. The cell culture was treated and incubated with JC-1 at 1:100 for 1 hour. 1 hour later, the fluorescence of each well was measured at 590 nm and 530 nm. All the experiments were 3 times and the fluorescence intensity was averaged. The result was expressed as percentage of the control group as 100.

Wnt/β-catenin signaling = assay: Wnt/β-catenin luciferase reporter assay in Wnt Reporter HEK293A cells; format: cell-based; conditions: for Wnt signaling activity for activating hair follicles (%): untreated group 100%; for Wnt signaling activity (in words): summary of Table 5
Text: In general, the Wnt/β-catenin signaling activated in the dermal papillae during transition from the […] to the anagen transition in the hair growth cycle begins as the hair starts to grow and occurs throughout the anagen phase. In the telogen and catagen phases, the Wnt/β-catenin signaling decreases or disappears, resulting in degeneration of hair follicles and shedding of hair. Therefore, it was investigated in the examples how much the momordin Ic, platycodin D2, polygalacin D or pseudoginsenoside RT5 of the present disclosure contributes to the amplification of Wnt/β-catenin signaling.
Wnt3a protein was used as a positive control group for amplifying Wnt/β-catenin signaling, and DMSO was used as a negative control group. After seeding Wnt Reporter HEK293A cells in a 96-well culture plate, with 3×10^4 cells per well, and then treating with the momordin Ic, platycodin D2, polygalacin D or pseudoginsenoside RT5 of the present disclosure as described in Table 5, reporter assay was conducted using a Promega's luciferase assay kit (E1960). The experiment was conducted according to the manufacturer's instructions and the activity of the Wnt/β-catenin promoter was measured using a luminometer (Victor; PerkinElmer, Waltham, Massachusetts, USA).

Molecule | Activity of dermal papilla cells (%) ([1]; 10 μg/mL) | Effect on activity and proliferation of dermal papilla cells (in words) [1] | Inhibition of androgenic activity (%) (androgen receptor) | Mitochondrial activity of dermal papilla cells (%) ([2]; 10 μg/mL) | Effect on mitochondrial activity of dermal papilla cells (in words) [2] | Effect of inhibiting androgenic activity (in words) (androgen receptor) | Wnt signaling activity for activating hair follicles (%) (Wnt/β-catenin signaling; 10 μg/mL) | Wnt signaling activity (in words) (Wnt/β-catenin signaling) | Activity of dermal papilla cells (%) ([1]; 2 μg/mL) | Wnt signaling activity for activating hair follicles (%) (Wnt/β-catenin signaling; 2 μg/mL) | Mitochondrial activity of dermal papilla cells (%) ([2]; 2 μg/mL)
CC(C)=CCC[C@](C)(O[C@@H]1O[C@H](CO)[C@@H](O)[C@H](O)[C@H]1O)[C@H]1CC[C@]2(C)[C@@H]1[C@H](O)C[C@@H]1[C@@]3(C)CC[C@H](O[C@@H]4O[C@H](CO)[C@@H](O)[C@H](O)[C@H]4O[C@@H]4O[C@H](CO)[C@@H](O)[C@H](O)[C@H]4O)C(C)(C)[C@@H]3[C@@H](O)C[C@]12C [Vina-ginsenoside R4, vina-ginsenoside R4] | 137% | superior effect of enhancing the activity of dermal papilla cells | 4% | 111% | superior effect of enhancing the mitochondrial activity | – | – | – | – | – | –
C[C@@H]1O[C@@H](O[C@H]2[C@H](OC(=O)[C@]34CCC(C)(C)C[C@H]3C3=CC[C@@H]5[C@@]6(C)C[C@H](O)[C@H](O[C@@H]7O[C@H](CO)[C@@H](O)[C@H](O)[C@H]7O)[C@@](C)(CO)[C@@H]6CC[C@@]5(C)[C@]3(C)C[C@H]4O)OC[C@H](O)[C@@H]2O)[C@H](O)[C@H](O)[C@H]1O[C@@H]1OC[C@@H](O)[C@H](O[C@@H]2OC[C@](O)(CO)[C@H]2O)[C@H]1O [Polygalacin D, polygalacin D] | 164% | superior effect of enhancing the activity of dermal papilla cells | 26% | – | – | superior effect of inhibiting androgenic activity | 293% | superior Wnt signaling activity | – | – | –
C[C@@H]1O[C@@H](O[C@H]2[C@H](O[C@H]3[C@H](O[C@H]4CC[C@]5(C)[C@H]6CC=C7[C@@H]8CC(C)(C)CC[C@]8(C(=O)O)CC[C@@]7(C)[C@]6(C)CC[C@H]5C4(C)C)OC[C@H](O)[C@@H]3O)O[C@H](CO)[C@@H](O)[C@@H]2O)[C@H](O)[C@H](O)[C@H]1O [Raddeanin A, raddeanin A] | 130% | superior effect of enhancing the activity of dermal papilla cells | 10% | – | – | – | – | – | – | – | –
CC(C)C1=CC(=O)C(C)(C2C(O)CC3(C)C4CC=C5C(CCC(OC6OC(CO)C(O)C(O)C6OC6OC(C)C(O)C(O)C6O)C5(C)C)C4(C)C(=O)CC23C)O1 (centres unmarked) [Picfeltarraenin IB, picfeltarraenin IB] | 139% | superior effect of enhancing the activity of dermal papilla cells | – | – | – | – | – | – | – | – | –
CC(C)=C[C@@H]1CO[C@]23C[C@@]4(CO2)[C@@H](CC[C@@H]2[C@@]5(C)CC[C@H](O[C@H]6OC[C@H](O)[C@H](O[C@H]7O[C@H](COS(=O)(=O)O)[C@@H](O)[C@H](O)[C@H]7O)[C@H]6O[C@@H]6O[C@@H](CO)[C@H](O)[C@H]6O)C(C)(C)[C@@H]5CC[C@]24C)[C@H]3[C@@]1(C)O [Bacopaside I, bacopaside I] | 133% | superior effect of enhancing the activity of dermal papilla cells | 6% | 110% | superior effect of enhancing the mitochondrial activity | – | – | – | – | – | –
CC1(C)CC[C@]2(C(=O)O)CC[C@]3(C)C(=CC[C@@H]4[C@@]5(C)CC[C@H](O[C@@H]6O[C@H](C(=O)O)[C@@H](O)[C@H](O[C@@H]7OC[C@@H](O)[C@H](O)[C@H]7O)[C@H]6O)C(C)(C)[C@@H]5CC[C@]43C)[C@@H]2C1 [Momordin Ic, momordin Ic] | 148% | superior effect of enhancing the activity of dermal papilla cells | 12% | 120% | superior effect of enhancing the mitochondrial activity | – | 370% | superior Wnt signaling activity | – | – | –
CC(C)(O)[C@H]1CC[C@@](C)([C@H]2CC[C@]3(C)[C@@H]2[C@H](O)C[C@@H]2[C@@]4(C)CC[C@H](O)C(C)(C)[C@@H]4[C@@H](O[C@@H]4O[C@H](CO)[C@@H](O)[C@H](O)[C@H]4O)C[C@]23C)O1 [Pseudoginsenoside RT5, pseudoginsenoside RT5] | 141% | superior effect of enhancing the activity of dermal papilla cells | 8% | 112% | superior effect of enhancing the mitochondrial activity | – | 120% | superior Wnt signaling activity | – | – | –
asiaticoside B | 131% | superior effect of enhancing the activity of dermal papilla cells | 6% | 151% | superior effect of enhancing the mitochondrial activity | – | – | – | – | – | –
C[C@@H]1CC[C@]2(C(=O)O)CC[C@]3(C)C(=CC[C@@H]4[C@@]5(C)CC[C@H](O[C@@H]6OC[C@H](O)[C@H](O)[C@H]6O)C(C)(C)[C@@H]5CC[C@]43C)[C@@H]2[C@]1(C)O [Ziyuglycoside II, ziyuglycoside II] | 139% | superior effect of enhancing the activity of dermal papilla cells | – | 105% | superior effect of enhancing the mitochondrial activity | – | – | – | – | – | –
C[C@@H]1O[C@@H](O[C@H]2[C@H](OC(=O)[C@]34CCC(C)(C)C[C@H]3C3=CC[C@@H]5[C@@]6(C)C[C@H](O)[C@H](O[C@@H]7O[C@H](CO)[C@@H](O)[C@H](O[C@@H]8O[C@H](CO)[C@@H](O)[C@H](O)[C@H]8O)[C@H]7O)C(CO)(CO)[C@@H]6CC[C@@]5(C)[C@]3(C)C[C@H]4O)OC[C@H](O)[C@@H]2O)[C@H](O)[C@H](O)[C@H]1O[C@@H]1OC[C@@H](O)[C@H](O[C@@H]2OC[C@](O)(CO)[C@H]2O)[C@H]1O [Platycodin D2, platycodin D2] | 162% | superior effect of enhancing the activity of dermal papilla cells | 16% | – | – | superior effect of inhibiting androgenic activity | 216% | superior Wnt signaling activity | – | – | –
CC(C)=CCC[C@](C)(O)[C@H]1CC[C@]2(C)[C@@H]1[C@H](O)C[C@@H]1[C@@]3(C)CC[C@H](O)C(C)(C)[C@@H]3[C@@H](O[C@@H]3O[C@H](CO)[C@@H](O)[C@H](O)[C@H]3O[C@@H]3OC[C@@H](O)[C@H](O)[C@H]3O)C[C@]12C [Notoginsenoside R2, notoginsenoside R2] | 131% | superior effect of enhancing the activity of dermal papilla cells | 29% | 117% | superior effect of enhancing the mitochondrial activity | superior effect of inhibiting androgenic activity | – | – | – | – | –
Nc1cc(N2CCCCC2)nc(N)[n+]1[O-] [Minoxidil, 2,4-diamino-6-piperidinopyrimidine 3-oxide, reference compound] | – | – | – | – | – | – | – | – | 121% | 82% | 129%
